Key:
[1] = Example 2: 1-butene headspace release from UV-cured coating on polyethylene extrusion coated paper; assay type: physicochemical; details: cured 1-butene/c/α-CD coated 5 cm x 10 cm rectangle, 250 mL bottle; for Headspace concentration of 1-butene, Ave.: 50 μL water, average of six
Description: A 20 mL bottle was charged with 9.8 g of UV Coating VP 10169/60 MF-2NE (obtained from Verga GmbH of Aschau am Inn, Germany) and 0.2 g of 1-butene/c/α-CD. The bottle was firmly capped and the components were mixed by shaking the bottle by hand until uniformly dispersed.
About 3 mL of the mixture was removed with a dropper dispensed on a glass pan. A rubber ink roller was used to spread the mixture on the glass and roller. Next, the roller was used to coat the mixture on the coated side of a 20 cm by 20 cm section of polyethylene extrusion coated paper (REYNOLDS® Freezer Paper, 90 microns total thickness). The roller delivered a coating nominal thickness of 0.3 microns. A razor blade was used to cut a 5 cm by 10 cm rectangle from the coated sheet. Then the coated cut rectangle was passed by hand about 10 cm beneath a medium pressure mercury arc lamp operating at 200 watts per inch (79 watts per cm). After 1.5 seconds exposure to the lamp, the cured rectangle was removed. The cured rectangle was allowed to sit on a laboratory bench overnight coating side down.
Six replicate coated rectangles were made in this fashion. Each rectangle was placed in a 250 mL serum bottle. Then the six bottles were sealed with TEFLON® faced silicone septa. The 1-butene headspace concentration was quantified using gas chromatography by removing 250 μL of gas from the sample bottle using a six port, two-position gas sampling valve interfaced directly to the GC column having FID detector.
Then 50 μL of deionized water was injected into each bottle. […] The headspace of each of the six sealed bottles was analyzed at 0.5, 1, 2, 4, 8, 24, and 96 hours after the injection of water wherein about 3 mL of the 250 mL bottle headspace volume was removed for each analysis. In each sampling, the amount of 1-butene released from the UV coated rectangles was quantified by gas chromatography against a 6-point 1-butene calibration curve having a 0.998 correlation coefficient. Table 1 and FIG. 1 illustrate the average of six replicate samples of 1-butene headspace concentration and standard deviation.

[2] = Example 2: headspace analysis of 1-butene/c/α-CD powder (GC-FID); assay type: physicochemical; details: 100 mg 1-butene/c/α-CD powder, 250 mL bottle, no water, about 1 hour
Description: 1-butene/c/α-CD was analyzed by adding 100 mg of the collected and dried precipitate to a 250 mL glass bottle equipped with a septum cap, taking care to ensure that no powder adheres to the walls of the bottle. After about 1 hour, 250 μL of headspace gas was removed from the bottle using a six port, two-position gas sampling valve (Valco #EC6W) interfaced directly to a gas chromatograph (GC; Hewlett Packard 5890) using a RTx-5 GC column, 30 m×0.25 mm I.D., 0.25 μm film (obtained from Restek, Inc., of Bellefonte, Pa.) and equipped with flame ionization detector (FID). […] Then 3 mL of water was injected into the bottle through the septum, and the bottle is placed on a mechanical shaker and mixed vigorously for about 1 hour. After the shaking, 250 μL of the headspace gas is removed and added to an empty 250 mL bottle equipped with a septum cap, wherein the interior of the bottle was purged with nitrogen gas. The headspace concentration of 1-butene was quantified in the second bottle using gas chromatography by removing 250 μL, of gas from the 250 mL bottle using a six port, two-position gas sampling valve (Valco #EC6W) interfaced directly to a GC column having FID detector previously calibrated with a 6-point 1-butene (99.0% pure, Scott Specialty Gases, Plumsteadville, Pa.) calibration curve.

C=CCC [1-Butene, 1-butene]
Headspace concentration of 1-butene, Ave. ([1]; 0.5 hours): 0.46 ppm (v/v) | Headspace concentration of 1-butene, Ave. ([1]; 1 hour): 1.5 ppm (v/v) | Headspace concentration of 1-butene, Ave. ([1]; 2 hours): 3.0 ppm (v/v) | Headspace concentration of 1-butene, Ave. ([1]; 4 hours): 4.9 ppm (v/v) | Headspace concentration of 1-butene, Ave. ([1]; 8 hours): 6.0 ppm (v/v) | Headspace concentration of 1-butene, Ave. ([1]; 24 hours): 7.6 ppm (v/v) | Headspace concentration of 1-butene, Ave. ([1]; 96 hours): 7.8 ppm (v/v) | Headspace concentration of 1-butene ([1]; before water injection): No measurable concentration | Headspace concentration of 1-butene [2]: No measurable concentration
